Reference: patent US7041698B2, “Hepatitis C virus inhibitors” (Bristol-Myers Squibb Company, priority 2002, dated 2006)
Like-named read-outs stand apart in the source and are kept apart here.

Target: T1, HCV NS3/4A protease complex (UniProt P27958, C1454S/C1711G, species not given)
T1 construct: fused on or other part: Three-lysine solubilising tail at the C-terminus of NS4A
Assay: Recombinant HCV NS3/4A protease complex FRET peptide assay (strain not stated)
Format: biochemical
Source text: Recombinant HCV NS3/4A Protease Complex FRET Peptide Assay
The purpose of this in vitro assay was to measure the inhibition of HCV NS3 protease complexes, derived from the BMS, H77C or J416S strains, as described below, by compounds of the present invention. This assay provides an indication of how effective compounds of the present invention would be in inhibiting HCV proteolytic activity.
Serum from an HCV-infected patient was obtained from Dr. T. Wright, San Francisco Hospital. An engineered full-length cDNA (compliment deoxyribonucleic acid) template of the HCV genome (BMS strain) was constructed from DNA fragments obtained by reverse transcription-PCR (RT-PCR) of serum RNA (ribonucleic acid) and using primers selected on the basis of homology between other genotype 1a strains. From the determination of the entire genome sequence, a genotype 1a was assigned to the HCV isolate according to the classification of Simmonds et al. (See P Simmonds, K A Rose, S Graham, S W Chan, F McOmish, B C Dow, E A Follett, P L Yap and H Marsden, J. Clin. Microbiol., 31(6), 1493–1503 (1993)). […] The infectious clones, H77C (1a genotype) and J4L6S (1b genotype) were obtained from R. Purcell (NIH) and the sequences are published in Genbank (AAB67036, see Yanagi, M., Purcell, R. H., Emerson, S. U. and Bukh, J. Proc. Natl. Acad. Sci. U.S.A. 94(16),8738–8743 (1997); AF054247, see Yanagi, M., St Claire, M., Shapiro, M., Emerson, S. U., Purcell, R. H. and Bukh, J, Virology 244 (1), 161–172. (1998)).
The BMS, H77C and J4L6S strains were used for production of recombinant NS3/4A protease complexes. DNA encoding the recombinant HCV NS3/4A protease complex (amino acids 1027 to 1711) for these strains were manipulated as described by P. Gallinari et al. (see Gallinari P, Paolini C, Brennan D, Nardi C, Steinkuhler C, De Francesco R. Biochemistry. 38(17):5620–32, (1999)). Briefly, a three-lysine solubilizing tail was added at the 3′-end of the NS4A coding region. The cysteine in the P1 position of the NS4A-NS4B cleavage site (amino acid 1711) was changed to a glycine to avoid the proteolytic cleavage of the lysine tag. Furthermore, a cysteine to serine mutation was introduced by PCR at amino acid position 1454 to prevent the autolytic cleavage in the NS3 helicase domain. The variant DNA fragment was cloned in the pET21b bacterial expression vector (Novagen) and the NS3/4A complex was expressed in Escherichia. coli strain BL21 (DE3) (Invitrogen) following the protocol described by P. Gallinari et al. (see Gallinari P, Brennan D, Nardi C, Brunetti M, Tomei L, Steinkuhler C, De Francesco R., J. Virol. 72(8):6758–69 (1998)) with modifications. Briefly, NS3/4A expression was induced with 0.5 mM Isopropyl β-D-1-thiogalactopyranoside (IPTG) for 22 hr at 20° C. A typical fermentation (10L) yielded approximately 80 g of wet cell paste. The cells were resuspended in lysis buffer (10 mL/g) consisting of 25 mM N-(2-Hydroxyethyl)Piperazine-N′-(2-Ethane Sulfonic acid) (HEPES), pH7.5, 20% glycerol, 500 mM Sodium Chloride (NaCl), 0.5% Triton-X100, 1 ug/ml lysozyme, 5 mM Magnesium Chloride (MgCl2), lug/ml Dnasel, 5 mM β-Mercaptoethanol (βME), Protease inhibitor—Ethylenediamine Tetraacetic acid (EDTA) free (Roche), homogenized and incubated for 20 mins at 4° C. The homogenate was sonicated and clarified by ultra-centrifugation at 235000 g for 1 hr at 4° C. Imidazole was added to the supernatant to a final concentration of 15 mM and the pH adjusted to 8.0. The crude protein extract was loaded on a Nickel-Nitrilotriacetic acid (Ni-NTA) column pre-equilibrated with buffer B (25 mM HEPES, pH 8.0, 20% glycerol, 500 mM NaCl, 0.5% Triton-X100, 15 mM imidazole, 5 mM βME). The sample was loaded at a flow rate of 1 mL/min. The column was washed with 15 column volumes of buffer C (same as buffer B except with 0.2% Triton-X100). The protein was eluted with 5 column volumes of buffer D (same as buffer C except with 200 mM Imidazole). […]

[1] = HCV NS3/4A protease enzyme assay, read-out: IC50 range

**Q.** Which IC50 [1] does the source give for `C=CC1C[C@]1(NC(=O)[C@@H]1C[C@@H](OC(=O)Nc2c(CC)cccc2C(C)C)CN1C(=O)[C@@H](NC(=O)OC(C)(C)C)C(C)(C)C)C(=O)NS(=O)(=O)C1CC1` (stereo partly drawn) [Compound 22, BocNH-P3(t-BuGly)-P2(Hyp(O—CO(NH—(2-ethyl-6-isopropyl-phenyl))))-P1(1R,2S VinylAcca)—CONHSO2Cyclopropane] here?
**A.** 1 to 10 µM

**Q.** `C=CC1CC1(NC(=O)[C@@H]1C[C@@H](OC(=O)N[C@H](C(=O)OC)[C@@H](C)CC)CN1C(=O)[C@@H](NC(=O)OC(C)(C)C)C(C)(C)C)C(=O)O` (stereo partly drawn) [Compound 104, BocNH-P3(t-BuGly)-P2(Hyp(O—CO(NH-2-[(2S,3S)-3-methylvaleric acid methyl ester])))-P1((1R,2S)/(1S,2R) VinylAcca)—CO2H] was tested. Which IC50 [1] did it give?
**A.** 1 to 10 µM

**Q.** For `C=CC1C[C@]1(NC(=O)[C@@H]1C[C@@H](OC(=O)Nc2c(CC)cccc2CC)CN1C(=O)[C@@H](NC(=O)OC(C)(C)C)C(C)(C)C)C(=O)NS(=O)(=O)C1CC1` (stereo partly drawn) [Compound 62, BocNH-P3(t-BuGly)-P2(Hyp(O—CO(NH—(2,6-diethyl-phenyl))))-P1(1R,2S VinylAcca)—CONHSO2Cyclopropane], which IC50 (read-out: IC50 range, HCV NS3/4A protease enzyme assay) is on record?
**A.** 1 to 10 µM

**Q.** `C=CC1C[C@]1(NC(=O)[C@@H]1C[C@@H](OC(=O)Nc2c(C)cccc2C)CN1C(=O)[C@@H](NC(=O)OC(C)(C)C)C(C)(C)C)C(=O)NS(=O)(=O)C1CC1` (stereo partly drawn) [Compound 58, BocNH-P3(t-BuGly)-P2(Hyp(O—CO(NH—(2,6-dimethyl-phenyl))))-P1(1R,2S VinylAcca)—CONHSO2Cyclopropane] was tested. Which IC50 [1] did it give?
**A.** 1 to 10 µM

**Q.** With `C=CC1C[C@]1(NC(=O)[C@@H]1C[C@@H](OC(=O)Nc2c(C)nn(C)c2C)CN1C(=O)[C@@H](NC(=O)OC(C)(C)C)C(C)(C)C)C(=O)NS(=O)(=O)C1CC1` (stereo partly drawn) [Compound 68, BocNH-P3(t-BuGly)-P2(Hyp(O—CO(NH—(1,3,5-Trimethyl-pyrazol-4-yl))))-P1(1R,2S VinylAcca)—CONHSO2Cyclopropane] as the compound, how does the IC50 [1] read?
**A.** 1 to 10 µM

**Q.** With `C=CC1CC1(NC(=O)[C@@H]1C[C@@H](OC(=O)Nc2c(F)cccc2F)CN1C(=O)[C@@H](NC(=O)OC(C)(C)C)C(C)(C)C)C(=O)O` (stereo partly drawn) [Compound 102, BocNH-P3(t-BuGly)-P2(Hyp(O—CO(NH—(2,6-difluoro-phenyl))))-P1((1R,2S)/(1S,2R) VinylAcca)—CO2H] as the compound, how does the IC50 [1] read?
**A.** > 10 µM

**Q.** How did the IC50 [1] turn out when `C=CC1CC1(NC(=O)[C@@H]1C[C@@H](OC(=O)Nc2cccc(C(F)(F)F)c2)CN1C(=O)[C@@H](NC(=O)OC(C)(C)C)C(C)(C)C)C(=O)O` (stereo partly drawn) [Compound 109, BocNH-P3(t-BuGly)-P2(Hyp(O—CO(NH—(3-trifluoromethyl-phenyl))))-P1((1R,2S)/(1S,2R) VinylAcca)—CO2H] was run?
**A.** > 10 µM

**Q.** For `C=CC1CC1(NC(=O)[C@@H]1C[C@@H](OC(=O)Nc2cc(C)ccc2F)CN1C(=O)[C@@H](NC(=O)OC(C)(C)C)C(C)(C)C)C(=O)O` (stereo partly shown) [Compound 107], which IC50 [1] is on record?
**A.** > 10 µM

**Q.** With `C=CC1CC1(NC(=O)[C@@H]1C[C@@H](OC(=O)Nc2ccccc2)CN1C(=O)[C@@H](NC(=O)OC(C)(C)C)C(C)(C)C)C(=O)O` (stereo partly drawn) [Compound 106, BocNH-P3(t-BuGly)-P2(Hyp(O—CO(NH-phenyl)))-P1((1R,2S)/(1S,2R) VinylAcca)—CO2H] as the compound, how does the IC50 [1] read?
**A.** > 10 µM

**Q.** Which IC50 [1] does the source give for `C=CC1C[C@]1(NC(=O)[C@@H]1C[C@@H](OC(=O)Nc2c(C)cccc2CC)CN1C(=O)[C@@H](NC(=O)OC(C)(C)C)C(C)(C)C)C(=O)NS(=O)(=O)C1CC1` (stereo partly drawn) [Compound 61, BocNH-P3(t-BuGly)-P2(Hyp(O—CO(NH—(2-ethyl-6-methyl))))-P1(1R,2S VinylAcca)—CONHSO2Cyclopropane] here?
**A.** 1 to 10 µM

**Q.** Which IC50 [1] does the source give for `C=CC1CC1(NC(=O)[C@@H]1C[C@@H](OC(=O)NC(C)c2cccc3ccccc23)CN1C(=O)[C@@H](NC(=O)OC(C)(C)C)C(C)(C)C)C(=O)O` (stereo partly drawn) [Compound 105, BocNH-P3(t-BuGly)-P2(Hyp(O—CO(NH-1-(R)-1-naphthylethyl)))-P1((1R,2S)/(1S,2R) VinylAcca)—CO2H] here?
**A.** > 10 µM

**Q.** How did the IC50 [1] turn out when `C=CC1CC1(NC(=O)[C@@H]1C[C@@H](OC(=O)NCc2ccccc2C)CN1C(=O)[C@@H](NC(=O)OC(C)(C)C)C(C)(C)C)C(=O)O` (stereo partly drawn) [Compound 103, BocNH-P3(t-BuGly)-P2(Hyp(O—CO(NH—(2-methyl-benzyl))))-P1((1R,2S)/(1S,2R) VinylAcca)—CO2H] was run?
**A.** > 10 µM

**Q.** Which IC50 [1] does the source give for `C=CC1CC1(NC(=O)[C@@H]1C[C@@H](OC(=O)NCCc2cccs2)CN1C(=O)[C@@H](NC(=O)OC(C)(C)C)C(C)(C)C)C(=O)O` (stereo partly drawn) [Compound 108, BocNH-P3(t-BuGly)-P2(Hyp(O—CO(NH—(2-thiophen-2-yl-ethyl))))-P1((1R,2S)/(1S,2R) VinylAcca)—CO2H] here?
**A.** > 10 µM
